In patent US5536491A, “^19 F poly aza macrocyclic MRI contrast medium” (Terumo Kabushiki Kaisha, priority 1993, dated 1996):

Columns and labels:
[1] = Measurement of imaging sensitivity (phantom experiment), 19F MRI; design: key to detectability as image at 500 mM / detectability as image at 100 mM / detectability as image at 50 mM / detectability as image at 10 mM / detectability as image at 5 mM / detectability as image at 1 mM / detectability as image at 500 μM / detectability as image at 100 μM: .smallcircle.: detectable as clear image; Δ: margially detectable as image; x: undetectable; settings: 1.5 T; for detectability as image at 100 μM / detectability as image at 500 μM / detectability as image at 1 mM / detectability as image at 5 mM / detectability as image at 10 mM / detectability as image at 50 mM / detectability as image at 100 mM / detectability as image at 500 mM: 20 min, complexes GRASS TR 10/TE 2 msec, 5-FU spin echo TR 4500/TE 100 msec
Method: Measurement of imaging sensitivity (phantom experiment)
Each of metal complex solution with various concentration of the present invention was sealed in cylindrical acryl phantom with an inner diameter of 1 cm and a height of 10 cm and subject to imaging. SIGNA (1.5 T) available from GE was used as an MRI apparatus, and imaging was performed by using a surface coil 13 cm in diameter for fluorine. A GRASS method was used as a pulse sequence and measurement condition was as followed:
TR (repetition time)=10 msec;
The measurement was performed for 20 min., and the number of acquisition was 937. As references, alkaline aqueous solutions of 5-fluorouracil with various concentrations were imaged by an identical apparatus. […] The imaging time was 20 min., and the number of acquisition was twice. […] In contrast, each metal complex compound of the present […] of 0.5 mM to 5 mM.

[2] = Measurement of relaxation time (T1 and T2 of intramolecular fluorine atoms) by 90 MHz NMR; assay type: physicochemical; design: unit not given here; settings: 10mM aqueous solution

| T1 [2] | T2 [2] | Compound | detectability as image at 100 μM [1] | detectability as image at 500 μM [1] | detectability as image at 1 mM [1] | detectability as image at 5 mM [1] | detectability as image at 10 mM [1] | detectability as image at 50 mM [1] | detectability as image at 100 mM [1] | detectability as image at 500 mM [1] | concentration required for detection as a clear image ([1]; 20 min imaging) |
| --- | --- | --- | --- | --- | --- | --- | --- | --- | --- | --- | --- |
| – | – | O=c1[nH]cc(F)c(=O)[nH]1 [Compound 5-FU, 5-fluorouracil, reference compound] | x | x | x | x | x | Δ | Δ | .smallcircle. | ≥ 500 mM |
| – | – | O=C(O)CN1CCCN(CC(=O)O)CCN(Cc2ccc(C(F)(F)F)cc2)CCCN(CC(=O)O)CC1.[Gd] [Compound-3] | x | x | Δ | Δ | .smallcircle. | .smallcircle. | .smallcircle. | .smallcircle. | – |
| – | – | O=C(O)CN1CCCN(Cc2cc(C(F)(F)F)cc(C(F)(F)F)c2)CCN(CC(=O)O)CCCN(Cc2cc(C(F)(F)F)cc(C(F)(F)F)c2)CC1.[Gd] [Compound-5] | x | Δ | .smallcircle. | .smallcircle. | .smallcircle. | .smallcircle. | .smallcircle. | .smallcircle. | – |
| 2.11 | 1.79 | O=C(O)CN1CCN(CC(=O)O)CCN(Cc2cc(C(F)(F)F)cc(C(F)(F)F)c2)CCN(CC(=O)O)CC1.[Gd] [Compound-8, gadolinium complex of 1-[3,5-bis(trifluoromethyl)benzyl]1,4,7,10-tetraazacyclododecane-4,7,10-triacetic acid] | – | – | – | – | – | – | – | – | – |
| 3.27 | 2.83 | O=C(O)CN1CCCN(CC(=O)O)CCN(Cc2ccc(C(C(F)(F)F)(C(F)(F)F)C(F)(F)F)cc2)CCCN(CC(=O)O)CC1.[Gd] [Compound-10, gadolinium complex of 1-[4-[tris(trifluoromethyl)methyl]benzyl]-1,4,8,11-tetraazacyclotetradecane-4,8,11-triacetic acid] | – | – | – | – | – | – | – | – | – |
| 12.6 | 9.31 | O=C(O)CN1CCCN(CC(=O)O)CCN(Cc2ccc(/C=C/c3cc(C(F)(F)F)cc(C(F)(F)F)c3)cc2)CCCN(CC(=O)O)CC1.[Gd] [Compound-13, gadolinium complex of 1-[4-[2-trans-(3,5-bis(trifluoromethyl)phenyl)vinyl]benzyl]-1,4,8,11-tetraazacyclotetradecane-4,8,11-triacetic acid] | x | x | Δ | .smallcircle. | .smallcircle. | .smallcircle. | .smallcircle. | .smallcircle. | – |
| – | – | O=C(O)CN1CCCN(CC(=O)O)CCN(CC(=O)O)CCCN(CCN(Cc2cc(C(F)(F)F)cc(C(F)(F)F)c2)Cc2cc(C(F)(F)F)cc(C(F)(F)F)c2)CC1.[Gd] [Compound-20, gadolinium complex of 1-[N""',N""'-bis[3,5-bis(trifluoromethyl)benzyl]aminoethyl]-1,4,8,11-tetraazacyclotetradecane-4,8,11-triacetic acid] | Δ | Δ | .smallcircle. | .smallcircle. | .smallcircle. | .smallcircle. | .smallcircle. | .smallcircle. | – |
| 6.34 | 4.21 | gadolinium complex of 1-[N""'-[3,5-bis(trifluoromethyl)benzyl]aminoethyl]-1,4,8,11-tetraazacyclotetradecane-4,8,11-triacetic acid [Compound-21] | – | – | – | – | – | – | – | – | – |
| 1.73 | 1.58 | gadolinium complex with 1-(2,2,2-trifluoroethyl)-1,4,8,11-tetraazacyclodecane-4,8,11-tetraacetic acid [Compound-1] | – | – | – | – | – | – | – | – | – |

| Compound | T1 [2] | T2 [2] | detectability as image at 100 μM [1] | detectability as image at 500 μM [1] | detectability as image at 1 mM [1] | detectability as image at 5 mM [1] | detectability as image at 10 mM [1] | detectability as image at 50 mM [1] | detectability as image at 100 mM [1] | detectability as image at 500 mM [1] | concentration required for detection as a clear image ([1]; 20 min imaging) |
| --- | --- | --- | --- | --- | --- | --- | --- | --- | --- | --- | --- |
| O=C(O)CN1CCCN(CC(=O)O)CCN(Cc2cc(C(F)(F)F)cc(C(F)(F)F)c2)CCCN(CC(=O)O)CC1.[Gd] [Compound-4, gadolinium complex of 1-[3,5-bis(trifluoromethyl)benzyl]-,1,4,8,11-tetraazacyclotetradecane-4,8,11-triacetic acid] | 2.16 | 1.82 | x | Δ | .smallcircle. | .smallcircle. | .smallcircle. | .smallcircle. | .smallcircle. | .smallcircle. | – |
| O=C(O)CN1CCCN(CC(=O)O)CCN(Cc2cc(C(F)(F)F)cc(C(F)(F)F)c2)CCCN(CC(=O)O)CC1.[Cu] [Compound-23, copper complex of 1-[3,5-bis(trifluoromethyl)benzyl]-1,4,8,11-tetraazacyclotetradecane-4,8,11-triacetic acid] | 36.5 | 24.9 | x | x | Δ | .smallcircle. | .smallcircle. | .smallcircle. | .smallcircle. | .smallcircle. | – |
| O=C([O-])CN1CCCN(CC(=O)[O-])CCN(Cc2cc(C(F)(F)F)cc(C(F)(F)F)c2)CCCN(CC(=O)[O-])CC1.[Cr+3] [Compound-24, chromium complex of 1-[3,5-bis(trifluoromethyl)benzyl]-1,4,8,11-tetraazacyclotetradecane-4,8,11-triacetic acid] | 15.5 | 10.4 | – | – | – | – | – | – | – | – | – |
